# Test results taken from patent publication US20250320206A1, “STAT6 DEGRADERS” (Gilead Sciences, Inc., priority 2024, published 2025).
# Target: T1, STAT6 (Homo sapiens, UniProt P42226)
# T1 construct: These cells express endogenous STAT6; host or cells: HeLa LgBiT clone 4.14
# T1 sequence (P42226 1-847): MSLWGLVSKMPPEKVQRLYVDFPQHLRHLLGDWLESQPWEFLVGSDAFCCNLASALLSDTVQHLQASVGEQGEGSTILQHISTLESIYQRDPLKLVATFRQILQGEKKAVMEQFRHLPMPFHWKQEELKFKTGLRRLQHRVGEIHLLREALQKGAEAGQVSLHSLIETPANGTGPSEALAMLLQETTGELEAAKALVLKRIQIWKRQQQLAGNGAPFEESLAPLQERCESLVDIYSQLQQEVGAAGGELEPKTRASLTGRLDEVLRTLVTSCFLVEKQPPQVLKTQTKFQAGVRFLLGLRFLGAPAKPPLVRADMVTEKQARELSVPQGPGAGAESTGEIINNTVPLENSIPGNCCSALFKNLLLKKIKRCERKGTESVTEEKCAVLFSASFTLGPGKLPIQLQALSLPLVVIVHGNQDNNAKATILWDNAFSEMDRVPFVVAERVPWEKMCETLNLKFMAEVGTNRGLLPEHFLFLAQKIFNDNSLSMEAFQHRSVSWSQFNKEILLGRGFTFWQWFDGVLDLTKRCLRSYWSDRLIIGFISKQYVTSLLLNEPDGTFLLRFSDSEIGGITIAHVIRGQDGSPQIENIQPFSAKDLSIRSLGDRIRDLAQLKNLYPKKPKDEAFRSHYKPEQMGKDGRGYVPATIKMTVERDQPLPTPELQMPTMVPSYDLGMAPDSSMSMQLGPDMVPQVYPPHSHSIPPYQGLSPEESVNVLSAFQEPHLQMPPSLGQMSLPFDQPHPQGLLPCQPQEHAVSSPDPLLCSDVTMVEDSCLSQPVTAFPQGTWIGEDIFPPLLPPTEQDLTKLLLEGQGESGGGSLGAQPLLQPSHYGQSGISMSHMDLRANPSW
# Test: Stat6 Degrader Assay (HiBiT based, HeLa LgBiT clone 4.14)
# Assay type: cell-based
# Conditions: HeLa LgBiT clone 4.14 HiBiT-STAT6, 4-24 h incubation; read-out: STAT6 degradation Emax
# Summary of the method: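 HeLa LgBiT clone 4.14 cells with CRISPR HiBiT-tagged endogenous STAT6, 5000 cells/well, compound dosed then incubated 4-24 h at 37° C, 5% CO2. Nano-Glo substrate added, 0.5 h, luminescence read as non-degraded STAT6. Terfenadine 50 μM (cell kill) defines 100% degradation.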
row,SMILES,Emax [%]
1,"Cc1cc(C(=O)N2CCC(CN3CCC(Cc4ccc5c(c4)n(C)c(=O)n5C4CCC(=O)NC4=O)CC3)CC2)cc(F)c1C1CCN(Cc2cc3c(-n4ccc(N)cc4=O)ccnc3n2C)CC1 (stereo not drawn) [Example 3u267, 3-(5-((1-((1-(4-(1-((4-(4-amino-2-oxopyridin-1 (2H)-yl)-1-methyl-1H-pyrrolo[2,3-b]pyridin-2-yl)methyl)piperidin-4-yl)-3-fluoro-5-methylbenzoyl)piperidin-4-yl)methyl)piperidin-4-yl)methyl)-3-methyl-2-oxo-2,3-dihydro-1H-benzo[d]imidazol-1-yl)piperidine-2,6-dione]",50 to 60
2,"CNc1cc(=O)n(-c2ccnc3c2cc(CN2CCC(c4c(F)cc(C(=O)N5CCC(OCC#Cc6ccc7c(c6)n(C)c(=O)n7C6CCC(=O)NC6=O)CC5)cc4F)CC2)n3C)cc1F (stereo not drawn) [Example 3u262, 3-(5-(3-((1-(3,5-difluoro-4-(1-((4-(5-fluoro-4-(methylamino)-2-oxopyridin-1 (2H)-yl)-1-methyl-1H-pyrrolo[2,3-b]pyridin-2-yl)methyl)piperidin-4-yl)benzoyl)piperidin-4-yl)oxy)prop-1-yn-1-yl)-3-methyl-2-oxo-2,3-dihydro-1H-benzo[d]imidazol-1-yl)piperidine-2,6-dione]",30 to 40

# Same assay, conditions: HeLa LgBiT clone 4.14 HiBiT-STAT6, 4-24 h incubation; values given for compounds with >80% Emax; geometric mean; read-out: STAT6 degradation DC50
row,SMILES,DC50 [nM]
1,"CNc1ccn(-c2ccnc3c2cc([C@H](C)N2CC=C(c4c(C)cc(C(=O)N5CCn6nc(CN7CCN(c8ccc9c(c8)n(C)c(=O)n9C8CCC(=O)NC8=O)CC7)cc6C5)cc4F)CC2)n3C)c(=O)c1 (stereo partly drawn) [Example 3u277, 3-(5-(4-((5-(3-fluoro-5-methyl-4-(1-((S)-1-(1-methyl-4-(4-(methylamino)-2-oxopyridin-1 (2H)-yl)-1H-pyrrolo[2,3-b]pyridin-2-yl)ethyl)-1,2,3,6-tetrahydropyridin-4-yl)benzoyl)-4,5,6,7-tetrahydropyrazolo[1,5-a]pyrazin-2-yl)methyl)piperazin-1-yl)-3-methyl-2-oxo-2,3-dihydro-1H-benzo[d]imidazol-1-yl)piperidine-2,6-dione]",0.4
2,"CNc1ccn(-c2ccnc3c2cc(CN2CCC(c4c(F)cc(C(=O)N5CCC(CN6CCN(C(=O)c7ccc8c(c7)n(C)c(=O)n8C7CCC(=O)NC7=O)CC6)CC5)cc4F)CC2)n3C)c(=O)c1 (stereo not drawn) [Example 3u264, 3-(5-(4-((1-(3,5-difluoro-4-(1-((1-methyl-4-(4-(methylamino)-2-oxopyridin-1 (2H)-yl)-1H-pyrrolo[2,3-b]pyridin-2-yl)methyl)piperidin-4-yl)benzoyl)piperidin-4-yl)methyl)piperazine-1-carbonyl)-3-methyl-2-oxo-2,3-dihydro-1H-benzo[d]imidazol-1-yl)piperidine-2,6-dione]",5.9
3,"CNc1ccn(-c2ccnc3c2cc(CN2CC=C(c4c(F)cc(C(=O)N5CCC(CN6CCN(Cc7ccc8c(c7)n(C)c(=O)n8[C@@H]7CCC(=O)NC7=O)C[C@@H]6C)CC5)cc4F)CC2)n3C)c(=O)c1 (single isomer, unassigned) [Example 3u3]",1.8
4,"Cc1cc(C(=O)N2CCC(CN3CCN(Cc4ccc5c(c4)n(C)c(=O)n5[C@H]4CCC(=O)NC4=O)C[C@@H]3C)CC2)cc(F)c1C1=CCN(Cc2cc3c(-n4ccc5c(c4=O)CCN5)ccnc3n2C)CC1 (single isomer, unassigned) [Example 3u24]",1.2
5,"Cc1cc(C(=O)N2CCC(CN3CCN(Cc4cc5c(cc4F)n([C@@H]4CCC(=O)NC4=O)c(=O)n5C4CC4)C[C@@H]3C)CC2)cc(F)c1C1=CCN([C@@H](C)c2cc3c(-n4ccc5c(c4=O)CCN5)ccnc3n2C)CC1 (single isomer, unassigned) [Example 3u133]",0.8
6,"Cc1cc(C(=O)N2CCC(CN3CCN(Cc4ccc5c(c4)n(C)c(=O)n5[C@@H]4CCC(=O)NC4=O)C[C@@H]3C)CC2)cc(F)c1C1=CCN([C@@H](C)c2cc3c(-n4ccc5c(c4=O)CCN5)ccnc3n2C)CC1 (single isomer, unassigned) [Example 3u139]",0.2
7,"CNc1ccn(-c2ccnc3c2cc([C@H](C)N2CC=C(c4c(C)cc(C(=O)N5CCC(CN6CCN(Cc7cc8c(cc7F)n([C@@H]7CCC(=O)NC7=O)c(=O)n8C7CC7)CC6)CC5)cc4F)CC2)n3C)c(=O)c1 (single isomer, unassigned) [Example 3u105]",1.4
